Results: patent publication US5236837A, “Enzymatic reagent for D-malate determination” (Boehringer Mannheim GmbH, priority 1989, dated 1993)
Where two headings read alike, the source gives them in different places.

How the values were obtained:
[1] = tested on: D-malic enzyme from Pseudomonas fluorescens; settings: cited from earlier work
[2] = tested on: D-malic enzyme from E. coli K12 (Crookes strain); settings: EDTA 3.3 μmol/ml; raw extract; cited from earlier work
[3] = target: T1, NAD+-dependent D-malate dehydrogenase (decarboxylating, E.C. 1.1.1.83) from E. coli (D-MDH, E. coli DSM 5496) (Escherichia coli, UniProt P76251); experiment: Km determination and EDTA effect on the enzyme according to the invention; format: biochemical; settings: EDTA 0.7 mg/ml test solution
T1 construct: two 42 kD subunits, full length, no tag
T1 sequence (P76251 1-361): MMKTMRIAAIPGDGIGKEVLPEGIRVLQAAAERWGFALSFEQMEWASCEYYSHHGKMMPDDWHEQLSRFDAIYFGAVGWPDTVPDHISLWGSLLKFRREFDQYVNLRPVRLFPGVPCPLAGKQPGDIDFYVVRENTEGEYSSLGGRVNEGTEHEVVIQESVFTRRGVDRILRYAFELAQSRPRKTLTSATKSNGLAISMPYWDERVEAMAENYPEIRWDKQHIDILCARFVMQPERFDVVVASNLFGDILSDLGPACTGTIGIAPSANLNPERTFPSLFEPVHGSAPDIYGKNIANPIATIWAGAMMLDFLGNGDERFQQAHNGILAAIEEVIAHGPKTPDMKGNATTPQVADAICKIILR

[4] = substrate: NC(=O)c1ccc[n+]([C@@H]2O[C@H](COP(=O)([O-])OP(=O)(O)OC[C@H]3O[C@@H](n4cnc5c(N)ncnc54)[C@H](O)[C@@H]3O)[C@@H](O)[C@H]2O)c1; experiment: as above; format: biochemical, E. coli; settings: other: Tris, pH 8.5, 25° C., pH 8.5
[5] = substrate: O=C(O)C[C@@H](O)C(=O)O; experiment: as above; format: biochemical, E. coli

In the case of `O=C(O)C[C@@H](O)C(=O)O` [D-malate], the Km ([1]; read-out: Km for malate) is listed as 300 µM.

For `O=C(O)CN(CCN(CC(=O)O)CC(=O)O)CC(=O)O` [EDTA], the “Inhibition of the reaction by EDTA” value [2] is listed as “inhibited” and the “Inhibition of enzyme activity by EDTA” value [3] is listed as “not inhibited”.

In the case of `NC(=O)c1ccc[n+]([C@@H]2O[C@H](COP(=O)([O-])OP(=O)(O)OC[C@H]3O[C@@H](n4cnc5c(N)ncnc54)[C@H](O)[C@@H]3O)[C@@H](O)[C@H]2O)c1` [NAD^+], the Km ([1]; read-out: Km for NAD+) is listed as 80 µM.

B1: NAD+-dependent D-malate dehydrogenase (decarboxylating, E.C. 1.1.1.83) from E. coli (D-MDH, E. coli DSM 5496) (Escherichia coli K-12) (protein)
chain: T1 sequence (P76251 1-361)
notes: two 42 kD subunits, full length, no tag
In the case of B1, the Km [4] is reported as 400 µM, the Km ([5]; other: HEPES, pH 9.0, 25° C., pH 9.0) is reported as 1500 µM and the Km ([5]; other: Tris, pH 8.5, 25° C., pH 8.5) is reported as 1100 µM.
